Data from patent publication US9434993B2, “Systems for identifying cosmetic agents for skin care compositions” (The Procter & Gamble Company, priority 2011, dated 2016).
“Also recorded” adds a separate entry of the source.

Legend:
[1] = test system: Telomerized-keratinocytes; test: Microscopic evaluation of cell morphology, telomerized keratinocytes; assay type: cell-based, human; conditions: 10 μM in DMSO for 6 hr; vs 0.1% DMSO vehicle control
Description: (§1) All cells were incubated at 37° C. in a humidified incubator with 5% CO2. At t=−24 hours cells were trypsinized from T-75 flasks and plated into 6-well plates in basal growth medium. At t=0 media was removed and replaced with the appropriate dosing solution as per the experimental design. Dosing solutions were prepared the previous day in sterile 4 ml Falcon snap cap tubes. Pure test materials may be prepared at a concentration of 1-200 μM, and botanical extracts may be prepared at a concentration of 0.001 to 1% by weight of the dosing solution. After 6 to 24 hours of chemical exposure, cells were viewed and imaged. The wells were examined with a microscope before cell lysis and RNA isolation to evaluate for morphologic evidence of toxicity. […] Cells were then lysed with 350 ul/well of RLT buffer containing β-mercaptoethanol (Qiagen, Valencia, Calif.), transferred to a 96-well plate, and stored at −20° C.

BJ fibroblasts = test: Microscopic evaluation of cell morphology, BJ fibroblasts; assay type: cell-based, human; conditions: 10 μM in DMSO for 6 hr; vs 0.1% DMSO vehicle control
Description: as §1

CC1=C(/C=C/C(C)=C/C=C/C(C)=C/C(=O)O)C(C)(C)CCC1 [tRA, all-trans-retinoic acid]
morphology of treated keratinocytes [1]: marked morphologic changes; also recorded: dramatic morphologic changes | morphology of treated fibroblasts (BJ fibroblasts): no apparent morphologic effect
